Measured values: patent US20200371122A1, “BIOMARKER FOR SENESCENT CELLS” (Buck Institute for Research on Aging, priority 2017, published 2020)

Experiments:
IMR-90 fibroblasts = assay type: cell-based, human
Method: (§1) Human fetal lung fibroblasts (IMR-90) were cultured in Dulbecco's modified eagle medium (DMEM) supplemented with 10% FBS and penicillin/streptomycin. LL 29 (AnHa) cells were obtained from the ATCC and growth to confluence using the ATCC protocol, but were subcultured as described for IMR-90 before initiation of all experiments. Quiescence was induced by replacing culture media with media containing 0.2% FBS. MCF-7 and MDA-MB-231 breast cancer cells were cultured in RPMI supplemented with 10% FBS and penicillin/streptomycin. All cells were cultured at 3% O2, and used between 25 and 40 population doublings. All cells were mycoplasma free.
RNA was extracted from cells or tissues using commercially available kits (Isolate II—Bioline for cells; Direct-zol—Zymo for tissues) according to the manufacturer's instructions. cDNA synthesis was performed using a High Capacity cDNA Reverse Transcription Kit (Thermo Fisher) according to the manufacturer's instructions. Quantitative PCR was performed on a LightCycler 480 II (Roche) using primers and probes designed for the Universal Probe Library. Primers and probes used for human transcripts were ACTB: 5′-CCAACCGCGAGAAGATGA (SEQ ID NO:1), 5′-TCCATCACGATGCCAGTG (SEQ ID NO:2), Probe #64; TUBA: 5′-cttcgtctccgccatcag (SEQ ID NO:3), 5′-ttgccaatctggacacca (SEQ ID NO:4), Probe #58; ALOX5: 5′-[…] (SEQ ID NO:5), 5′-[…] (SEQ ID NO:6), Probe #64; ALOX5AP: 5′-ggtctgcggggctacttt (SEQ ID NO:7), 5′-[…] (SEQ ID NO:8), Probe #18; ALOX12: 5′-[…] (SEQ ID NO:9), 5′-agccaggtcgtcaggag (SEQ ID NO:10), Probe #32; ALOX15: 5′-[…] (SEQ ID NO:11), 5′-[…] (SEQ ID NO:12), Probe #76; ALOX15B: 5′-[…] (SEQ ID NO:13), 5′-actgggaggcgaagaagg (SEQ ID NO:14), Probe #51; AKR1C1: 5′-catgcctgtcctgggattt (SEQ ID NO:15), 5′-[…] (SEQ ID NO:16), Probe #49; AKR1C2: 5′-ctatgcgcctgcagaggt (SEQ ID NO:17), 5′-[…] (SEQ ID NO:18), Probe #31; AKR1C3: 5′-[…] (SEQ ID NO:19), 5′-[…] (SEQ ID NO:20), Probe #78; CYSLTR2: 5′-[…] (SEQ ID NO:21), 5′-[…] (SEQ ID NO:22), Probe #18; DPEP1: 5′-gacgtcctgaggctggtg (SEQ ID NO:23), 5′-[…] (SEQ ID NO:24), Probe #9 (SEQ ID NO:25), ELOVL2: 5′-[…] (SEQ ID NO:26), 5′-[…] (SEQ ID NO:27), Probe #53; ELOVL4: 5′-catttggcccatggattc (SEQ ID NO:28), 5′-[…] (SEQ ID NO:29), Probe #31; ELOVL5: 5′-cccttccatgcgtccata (SEQ ID NO:30), 5′-[…] (SEQ ID NO:31), Probe #31; EPHX2: 5′-ttctgctggacaccctgaa (SEQ ID NO:32), 5′-[…] (SEQ ID NO:33), Probe #45; GPX4: 5′-ttcccgtgtaaccagttcg (SEQ ID NO:34), 5′-[…] (SEQ ID NO:35), Probe #36; LTA4H: 5′-ctgctctcacggtccagtc (SEQ ID NO:36), 5′-[…] (SEQ ID NO:37), Probe #64; LTBR2: 5′-[…] (SEQ ID NO:38), 5′-[…] (SEQ ID NO:39), Probe #33; LTC4S: 5′-[…] (SEQ ID NO:40), 5′-[…] (SEQ ID NO:41), Probe #18; PTGDS: 5′-[…] (SEQ ID NO:42), 5′-[…] (SEQ ID NO:43), Probe #36; PTGES: 5′-agagatgcctgcccacag (SEQ ID NO:44), 5′-tggccaccacgtacatctt (SEQ ID NO:45), Probe #4; PTGES2: 5′-[…] (SEQ ID NO:46), 5′-[…] (SEQ ID NO:47), Probe #49; PTGES3 (SEQ ID NO:48), 5′-[…] (SEQ ID NO:49), 5′-[…] (SEQ ID NO:50), Probe #48; PTGIS: 5′-[…] (SEQ ID NO:51), 5′-[…] (SEQ ID NO:52), Probe #45; PTGR1: 5′-atgatggggcagcaagtg (SEQ ID NO:53), 5′-cccatcagaaatggagtgc (SEQ ID NO:54), Probe #64; PTGS1: 5′-[…] (SEQ ID NO:55), 5′-gtggtggtccatgttcctg (SEQ ID NO:56), Probe #81; PTGS2: 5′-gatccccagggctcaaac (SEQ ID NO:57), 5′-[…] (SEQ ID NO:58), Probe #61; TBXAS1: 5′-[…] (SEQ ID NO:59), 5′-tgcctcccgtgtgaatct (SEQ ID NO:60), Probe #73; AREG: 5′-[…] (SEQ ID NO:61), 5′-[…] (SEQ ID NO:62), Probe #73; CCL2: 5′-AGTCTCTGCCGCCCTTCT (SEQ ID NO:63), 5′-GTGACTGGGGCATTGATTG (SEQ ID NO:64), Probe #40; CCL27: 5′-[…] (SEQ ID NO:65), 5′-gctgggtggcagtaggaat (SEQ ID NO:66), Probe #18; CXCL1: 5′-[…] (SEQ ID NO:67), 5′-[…] (SEQ ID NO:68), Probe #52; HGF: 5′-[…] (SEQ ID NO:69), 5′-[…]

[1] = tested on: IL-6 secretion in senescent cells; experiment: IL-6 ELISA on conditioned media of IR-induced senescent cells treated with COX-2/ALOX5 inhibitors; assay type: cell-based, human; details: SEN(IR) IMR-90, inhibitor for 10 days
Method: as §1
Senescence was induced by irradiation with 10 Gy of ionizing radiation. Non-senescent controls (proliferating or quiescent) were placed in the irradiator for an identical period of time without turning on the irradiator. Oncogene-induced senescence was induced via lentiviral overexpression of HRAS^V12, as described previously (Wiley et al. (2016) Cell Metab. 23: 303-314).
3×10^4 cells in 12-well plates were treated as indicated in the text, and cultured in 0.5-1 ml serum-free DMEM for 24 hr. CM were collected and clarified at 2,000×g for 10 min. Supernatants were transferred to a tube; cells were trypsinized and counted. CM (2.5 μl) were analyzed by bead-based ELISAs (AlphaLISA, Perkin-Elmer) as instructed by the manufacturer and normalized to cell number.

Row | growth of non-senescent cells (IMR-90 fibroblasts) | SMILES | lowered IL-6 secretion in senescent cells [1] [%] | number of cells following irradiation (IMR-90 fibroblasts; 5 Gy IR, 10 days) | cell number relative to DMSO-treated SEN(IR) cells (IMR-90 fibroblasts; SEN(IR) cells counted for IL-6 ELISA normalization)
1 | retarded growth | CC(/C=C/c1cccc(Oc2ccc(F)cc2)c1)N(O)C(N)=O (centres unmarked) [BW-B70C] | ~50 |  | 
2 |  | CS(=O)(=O)c1ccc(-c2noc(C(F)(F)F)c2-c2ccccc2)cc1 [CAY-10404] | ~70 | significantly increased | increase in cell number
